# Data taken from patent US12156874B2, “Inhibitors of TRPC6” (Boehringer Ingelheim International GmbH, priority 2019, dated 2024).
# Tested on: TRPC6
# Assay: not given
# Conditions: lung tissue of IPAH patients; cited from earlier work
row,Structure (SMILES),expression of TRPC6
1,COc1ccccc1Oc1c(NS(=O)(=O)c2ccc(C(C)(C)C)cc2)nc(-c2ncccn2)nc1OCCO [bosentan],decreases expression of TRPC6

# Tested on: PASMC
# Assay: not given
# Conditions: cited from earlier work
row,Structure (SMILES),proliferation of PASMC
1,COc1ccccc1Oc1c(NS(=O)(=O)c2ccc(C(C)(C)C)cc2)nc(-c2ncccn2)nc1OCCO [bosentan],decreases proliferation

# Molecular target: T1, human TRPC6 (Homo sapiens, UniProt Q9Y210)
# T1 construct: expressed in transfected cells; host or cells: HEK293
# T1 sequence (Q9Y210 1-931): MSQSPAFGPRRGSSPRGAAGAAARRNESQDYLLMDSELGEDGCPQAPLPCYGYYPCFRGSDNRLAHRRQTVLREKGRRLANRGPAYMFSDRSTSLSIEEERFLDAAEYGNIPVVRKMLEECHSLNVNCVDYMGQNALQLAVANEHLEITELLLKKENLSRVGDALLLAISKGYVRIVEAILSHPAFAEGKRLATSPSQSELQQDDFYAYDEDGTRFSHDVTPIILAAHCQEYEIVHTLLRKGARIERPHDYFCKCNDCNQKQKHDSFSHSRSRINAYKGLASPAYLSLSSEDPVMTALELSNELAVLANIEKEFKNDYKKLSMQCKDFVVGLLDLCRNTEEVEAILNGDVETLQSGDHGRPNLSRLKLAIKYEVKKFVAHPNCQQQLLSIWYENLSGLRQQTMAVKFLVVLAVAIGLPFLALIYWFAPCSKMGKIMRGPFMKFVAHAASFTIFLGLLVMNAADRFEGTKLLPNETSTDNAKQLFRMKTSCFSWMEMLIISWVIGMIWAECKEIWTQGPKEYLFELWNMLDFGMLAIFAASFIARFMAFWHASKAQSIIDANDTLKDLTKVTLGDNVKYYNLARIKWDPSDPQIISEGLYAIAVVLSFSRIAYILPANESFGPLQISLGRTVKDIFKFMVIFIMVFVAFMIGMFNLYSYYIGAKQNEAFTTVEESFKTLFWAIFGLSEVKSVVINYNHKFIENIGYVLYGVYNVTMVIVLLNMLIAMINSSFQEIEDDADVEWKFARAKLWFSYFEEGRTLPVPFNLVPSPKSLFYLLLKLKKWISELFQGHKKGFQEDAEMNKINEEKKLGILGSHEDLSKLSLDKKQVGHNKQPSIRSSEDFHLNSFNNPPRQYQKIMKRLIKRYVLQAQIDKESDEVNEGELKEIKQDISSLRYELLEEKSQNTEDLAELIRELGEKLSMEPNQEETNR
# Assay: Assay A: Determination of TRPC6 inhibition, whole-cell patch clamp assay
# Type: cell-based
# Conditions: 30 nM; HEK293 cells expressing human TRPC6; pre-incubated at least 3 h; average inward current densities vs vehicle; activated by 10 μM ethyl 8-fluoro-1H,2H,3H,4H,5H-pyrido[4,3-b]indole-2-carboxylate
# Description: Assay A: Determination of TRPC6 Inhibition
# HEK293 cells transfected with a plasmid expressing human TRPC6 are used for a patch clamp assay. Patch clamp experiments permit the detection of currents through TRPC6 channels in cellular systems as mentioned above. For whole-cell patch clamp recordings, a glass capillary electrode filled with electrolyte is brought into contact with a single cell and a high-resistance (gigaohm) seal is established with the cell membrane. The membrane is then ruptured to achieve the whole-cell configuration, permitting control of the intracellular electrical potential and measurement of electrical currents across the cell membrane using an amplifier connected to the electrode. A perfusion system permits control of the extracellular solution, including the addition of inhibitors and activators of TRPC6 channels. The TRPC6 current can be activated by 10 μM ethyl 8-fluoro-1H,2H,3H,4H,5H-pyrido[4,3-b]indole-2-carboxylate (commercially available, MFCD02930345) in the extracellular solution.
# For the characterization of TRPC6 inhibitors, TRPC6 expression was induced for 20-48 hours, cells were removed from growth plates, and replated at low density (to attain good single-cell physical separation) in small dishes for measurement. Patch clamp recordings were performed in the whole-cell configuration at a holding potential of −40 mV. Every 1.5 seconds, a 400 ms voltage ramp was applied from −80 to +80 mV, flanked by 50 ms constant segments at −80 and +80 mV, respectively. TRPC6-mediated currents were quantified during those constant segments at −80 mV and +80 mV. The internal (pipette) solution consisted of 140 mM cesium aspartate, 10 mM EGTA, 1.91 mM CaCl2, 2.27 mM MgCl2 and 10 mM HEPES, pH 7.2 with CsOH, 40 nM calculated free Ca^2+. The external (bath) solution consisted of 145 mM NaCl, 4.5 mM KCl, 3 mM MgCl2, 10 mM HEPES, 10 mM glucose, 1 mM EGTA, pH 7.4 with NaOH. TRPC6 expressing cells were pre-incubated with potential inhibitors at either 30 nM or at various concentrations (for concentration-response-curves) or vehicle for at least 3 h and both maximal inward and outward currents were determined after addition of ethyl 8-fluoro-1H,2H,3H,4H,5H-pyrido[4,3-b]indole-2-carboxylate. Percent current inhibition was calculated from the average inward current densities of treated and vehicle cells. Current densities were calculated as absolute current normalized with respect to the individual cell's membrane capacitance as a surrogate parameter for cellular surface area. The number of cells measured for each group was chosen in a way that an average of 50% current inhibition with respect to the vehicle group would yield a statistically significant difference (p<0.05) in 90% of the cases based on the variability in current expression between cells. For the estimation of half-inhibitory concentrations, the Hill equation was fitted to the average % percent inhibition values at a series of concentrations of a specific compound.
row,Structure (SMILES),inhibition at 0.03 µM
1,"COc1ccc(Oc2ccc(C(=O)N3CC[C@H](c4nnc(N)cc4C)C[C@@H]3C)cc2)cn1 [Compound 1, 6-[(2S,4S)-1-{4-[(6-Methoxypyridin-3-yl)oxy]benzoyl}-2-methylpiperidin-4-yl]-5-methylpyridazin-3-amine trifluoroacetic acid]",81%
2,"COc1ccc(Oc2ccc(C(=O)N3CC[C@H](c4nnc(N)cc4C)C[C@@H]3C)cc2OC)cn1 [Compound 2, 6-[(2S,4S)-1-{3-Methoxy-4-[(6-methoxypyridin-3-yl)oxy]benzoyl}-2-methylpiperidin-4-yl]-5-methylpyridazin-3-amine]",60%
3,"COc1ccc(Oc2ccc(C(=O)N3CC[C@@H](c4nnc(N)cc4C)[C@@H](C)C3)cc2OC)cn1 [Compound 6, 6-[(3R,4R)-1-{3-Methoxy-4-[(6-methoxypyridin-3-yl)oxy]benzoyl}-3-methylpiperidin-4-yl]-5-methylpyridazin-3-amine]",72%
4,"COc1cc(C(=O)N2CC[C@H](c3nnc(N)cc3C)C[C@@H]2C)ccc1Oc1ccc(C(F)(F)F)nc1 [Compound 4, 6-[(2S,4S)-1-(3-Methoxy-4-{[6-(trifluoromethyl)pyridin-3-yl]oxy}benzoyl)-2-methylpiperidin-4-yl]-5-methylpyridazin-3-amine]",12%

# Further lines, results first:
row,inhibition at 0.03 µM,Structure (SMILES)
1,27%,"COc1ccc(Oc2cnc(C(=O)N3CCC(c4ccc(N)nn4)CC3)cc2OC)cn1 [Compound 5, 6-(1-{4-Methoxy-5-[(6-methoxypyridin-3-yl)oxy]pyridine-2-carbonyl}piperidin-4-yl)pyridazin-3-amine trifluoracetic acid]"
2,37%,"COc1ccc(Oc2ccc(C(=O)N3CCC(c4nnc(N)cc4C)CC3)cc2OC)cn1 [Compound 8, 6-(1-{3-Methoxy-4-[(6-methoxypyridin-3-yl)oxy]benzoyl}piperidin-4-yl)-5-methylpyridazin-3-amine trifluoroacetic acid]"
3,51%,"COc1ccc(Oc2cnc(C(=O)N3CCC(c4nnc(N)cc4C)CC3)cc2OC)cn1 [Compound 9, 6-(1-{4-Methoxy-5-[(6-methoxypyridin-3-yl)oxy]pyridine-2-carbonyl}piperidin-4-yl)-5-methylpyridazin-3-amine trifluoracetic acid]"
4,61%,"COc1ccc(Oc2ccc(C(=O)N3CCC(c4nnc(N)cc4C)CC3)cc2)cn1 [Compound 7, 6-(1-{4-[(6-Methoxypyridin-3-yl)oxy]benzoyl}piperidin-4-yl)-5-methylpyridazin-3-amine trifluoroacetic acid]"
